Experiment [1] addresses T1, CDK8/Cyclin C (Homo sapiens, UniProt P49336).
T1 construct: purchased Invitrogen PV4402
Briefly: CDK8/Cyclin C LANCE TR-FRET kinase assay. The format is biochemical. The conditions noted are these: CDK8/Cyclin C 10 nM, ATP 24 μM, Ulight-GS peptide 80 nM, 37° C. 30 mins. From the text:
CDK8/Cyclin C LANCE TR-FRET Kinase Assay:
The biological activity of the compounds of the invention can be determined using the assay described below.
CDK8/Cyclin C protein was obtained from Invitrogen, cat #PV4402. ULight-Glycogen Synthase (Ulight-GS) peptide with sequence PASVPPSPSLSRHSSPHQ(pS)ED, and Europium-anti-phospho Glycogen Synthase (Ser641) [Eu-anti-P-GS (Ser641)] were obtained from Perkin Elmer, cat #TRF0131-M and cat #TRF0220. Adenosine-5′-triphosphate (ATP) was obtained from Invitrogen, cat #PV3227.
A mixture of (1) a compound of formula I, (2) substrate [Ulight-GS peptide (80 nM) and ATP (24 μM)], and (3) CDK8/Cyclin C (10 nM) in reaction buffer (50 mM Hepes, pH7.0, 10 mM MgCl2, 1 mM EGTA, 0.2 mg/mL BSA, 0.8 mM DTT) were incubated at 37° C. for 30 mins. Then, [Eu-anti-P-GS (Ser641)] (1.5 nM) was added. Following incubation at room temperature for 30 mins, the TR-FRET signals were detected using Envision reader (Ex 340 nm, Em 615 nm and 665 nm) from Perkin Elmer. The reactivity in percentage of inhibition or dose response was analyzed with GraphPad Prism 5 (GraphPad Software).
Background: TR-FRET usually uses a lanthanide donor and a delayed reading to cut background.

Experiment [2] relates to HCT116 (colorectal cancer). Briefly: In vitro cell proliferation assay (CCK-8), HCT116. The format is cell-based. The conditions noted are these: Homo sapiens, HCT-116, HCT116 cells, 72 hours. The method, then: (§1) In Vitro Cell Proliferation Assay:
(§2) Cells were seeded on 96-well plates at 5×10^3 cells per well and precultured for 24 hours. The cells were treated with serial diluted compounds and cultured for 72 hours. Then all media was discarded and after that, 100 μL 1:10 (v/v) Cell Counting Kit-8 (CCK-8)-culture media solution was added to the wells. Plate was developed for 2 hours in an incubator, and the absorbance was measured at 450 nm wavelengths with SpectraMAX190 (MDS, Sunnyvale, Calif.). The inhibition rate (IR) of the tested compounds was determined with following formula: IR (%)=(ODDMSO−ODcompound)/ODDMSO×100%. The concentration corresponding to 50% IR (IC50) was determined with plot curve of IR against tested compound concentrations with SoftMax Pro.

In experiment [3] the test system is SW-837 (colorectal cancer). Briefly: In vitro cell proliferation assay (CCK-8), SW-837. The experiment is classed as cell-based. To be noted: Homo sapiens, SW837, SW-837 cells, 72 hours. The method, then:
as §1, §2

The subject of experiment [4] is AGS (gastric cancer). Kind of experiment: In vitro cell proliferation assay (CCK-8), AGS. The experiment is classed as cell-based. The conditions noted are these: Homo sapiens, AGS cells, 72 hours. On the procedure:
as §1, §2

T1 sequence (P49336 whole entry): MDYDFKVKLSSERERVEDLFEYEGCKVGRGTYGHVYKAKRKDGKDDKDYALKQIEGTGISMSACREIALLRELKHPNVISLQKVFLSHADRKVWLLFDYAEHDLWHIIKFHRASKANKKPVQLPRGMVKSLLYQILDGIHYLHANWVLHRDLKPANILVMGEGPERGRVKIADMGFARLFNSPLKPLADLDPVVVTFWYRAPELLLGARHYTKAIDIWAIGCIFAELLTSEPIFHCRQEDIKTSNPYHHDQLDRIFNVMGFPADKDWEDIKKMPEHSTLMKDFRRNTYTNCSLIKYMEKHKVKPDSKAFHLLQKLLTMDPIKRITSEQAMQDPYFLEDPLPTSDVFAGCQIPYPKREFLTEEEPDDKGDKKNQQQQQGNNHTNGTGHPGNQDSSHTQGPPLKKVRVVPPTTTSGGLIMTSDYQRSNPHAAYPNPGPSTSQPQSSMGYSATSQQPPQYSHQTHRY
T1 sequence (P24863 whole entry partner): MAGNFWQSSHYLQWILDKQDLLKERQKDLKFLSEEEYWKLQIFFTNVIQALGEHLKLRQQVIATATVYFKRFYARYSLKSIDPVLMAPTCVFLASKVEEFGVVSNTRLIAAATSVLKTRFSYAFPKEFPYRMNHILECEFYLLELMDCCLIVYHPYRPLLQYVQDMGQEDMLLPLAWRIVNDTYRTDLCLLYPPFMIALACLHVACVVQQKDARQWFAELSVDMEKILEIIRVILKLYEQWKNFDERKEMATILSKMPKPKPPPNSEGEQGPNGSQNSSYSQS

Consider `O=C1Cc2cc(-c3cncc(N[C@@H](CO)c4ccccc4)c3)ccc2N1` [Example 1, 5-[5-((R)-2-Hydroxy-1-phenyl-ethylamino)-pyridin-3-yl]-1,3-dihydro-indol-2-one], for which the IC50 – broadly, the concentration that inhibits the measured activity by half – in experiment [1] was found to be 3.5 nM; in experiment [2] it was 0.66 µM; in experiment [3], 2.3 µM; in experiment [4] it was 0.65 µM.

Consider `OC[C@H](Nc1cncc(-c2ccc3[nH]ncc3c2)c1)c1ccccc1` [Example 16, (R)-2-[5-(1H-Indazol-5-yl)-pyridin-3-ylamino]-2-phenyl-ethanol], for which the IC50 in experiment [1] was 0.2 nM; in experiment [2] it was 0.037 µM; in experiment [3], 0.091 µM; in experiment [4], 0.033 µM.

In the case of `NC(=O)[C@H](Nc1cncc(-c2ccc3[nH]nc(Cl)c3c2)c1)c1ccccc1` [Example 59, (R)-2-[5-(3-Chloro-1H-indazol-5-yl)-pyridin-3-ylamino]-2-phenyl-acetamide], the IC50 in experiment [1] stood at 2.3 nM.

In experiment [1], `NC(=O)[C@@H](Nc1cncc(-c2ccc3[nH]nc(Cl)c3c2)c1)c1ccccc1` [Example 60, (S)-2-[5-(3-Chloro-1H-indazol-5-yl)-pyridin-3-ylamino]-2-phenyl-acetamide] returned an IC50 of 9.2 nM.

(Values after US20150266878A1, “NOVEL BI-RING PHENYL-PYRIDINES/PYRAZINES FOR THE TREATMENT OF CANCER” (HOFFMANN-LA ROCHE INC., priority 2012, published 2015).)
